Measured values from PubChem BioAssay (NCI).
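A five-concentration, 48-hour dose response in 96-well plates underlies each endpoint, interpolated linearly between surrounding concentrations. Abbreviation: GI50, concentration required for 50% inhibition of growth. TGI: total growth inhibition.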

Legend:
Test in all cases: NCI tumour cell line growth inhibition, 48 h
CCRF-CEM leukemia = tested on: CCRF-CEM leukemia
EKVX NSCLC = tested on: EKVX NSCLC
K-562 leukemia = tested on: K-562 leukemia
MALME-3M melanoma = tested on: MALME-3M melanoma
NCI-H522 lung = tested on: NCI-H522 lung
SN12C renal = tested on: SN12C renal
SW-620 colon = tested on: SW-620 colon
HS 578T breast = tested on: HS 578T breast
LOX IMVI melanoma = tested on: LOX IMVI melanoma
TK-10 renal = tested on: TK-10 renal

SMILES	TGI (CCRF-CEM leukemia) [µM]	TGI (EKVX NSCLC) [µM]	TGI (K-562 leukemia) [µM]	TGI (MALME-3M melanoma) [µM]	TGI (NCI-H522 lung) [µM]	TGI (SN12C renal) [µM]	TGI (SW-620 colon) [µM]	TGI (HS 578T breast) [µM]	TGI (LOX IMVI melanoma) [µM]	TGI (TK-10 renal) [µM]	GI50 (CCRF-CEM leukemia) [µM]	GI50 (HS 578T breast) [µM]	GI50 (K-562 leukemia) [µM]	GI50 (LOX IMVI melanoma) [µM]	GI50 (MALME-3M melanoma) [µM]	GI50 (NCI-H522 lung) [µM]	GI50 (SN12C renal) [µM]	GI50 (SW-620 colon) [µM]	GI50 (TK-10 renal) [µM]	GI50 (EKVX NSCLC) [µM]
N=C1N(c2ccccc2)C(=O)C23CCCC2C13N1CCOCC1 (centres undefined)	> 100	> 100	> 100	> 100	> 100	> 100	> 100	–	–	–	–	–	–	–	–	–	–	–	–	–
CC#CS(=O)(=O)c1ccccc1	–	35.4	–	12.5	3.92	19.4	16.5	41.8	21	17.4	–	–	–	–	–	–	–	–	–	–
COc1cc(-c2cc(=O)c3ccccc3o2)ccc1N	> 100	> 100	> 100	> 100	> 100	> 100	> 100	–	> 100	> 100	–	–	–	–	–	–	–	–	–	–
NC(=O)N/N=C(\C(=O)C(=O)Nc1ccc(Cl)c(C(F)(F)F)c1)c1nc2ccc(C(=O)c3ccccc3)cc2[nH]c1=O	> 100	> 100	> 100	> 100	> 100	> 100	> 100	–	–	> 100	–	–	–	–	–	–	–	–	–	–
COc1ccc(/C=C2\CN(Cc3cn(CCCNc4ccnc5cc(Cl)ccc45)nn3)C/C(=C\c3ccc(OC)c(OC)c3)C2=O)cc1OC	8.65	–	3.64	3.54	3.06	3.12	1.75	9.97	2.43	7.92	0.571	1.99	0.459	1.08	1.75	1.32	1.33	0.455	2.95	–
CC(=O)NC(CCCCNC(=O)N(CCCl)N=O)C(=O)NCc1ccccc1 (centres undefined)	> 100	> 100	> 100	> 100	> 100	> 100	> 100	–	–	–	–	–	–	–	–	–	–	–	–	–
CN1CCC[C@@H]1CCO[C@](C)(c1ccccc1)c1ccc(Cl)cc1	–	25.2	–	4.85	17.1	18.7	18.8	36	14.2	23.3	–	12.2	–	3.02	1.79	4.63	4.54	5.5	10.7	10.9
O=C1N=C(c2ccccc2)OC1C(=O)c1ccccc1 (centres undefined)	> 100	> 100	> 100	–	> 100	> 100	> 100	> 100	> 100	> 100	–	–	–	–	–	–	–	–	–	–
O=C(/C=C\c1cccc2ccccc12)c1cccs1	7.83	25.9	8.79	25.1	8.49	31.5	2.99	–	–	33.2	–	–	–	–	–	–	–	–	–	–
ClC1CCC2OOC1O2 (centres undefined)	> 100	> 100	> 100	> 100	> 100	> 100	> 100	–	> 100	> 100	–	–	–	–	–	–	–	–	–	–
COC(=O)C(=O)C(C(=O)C(=O)Nc1ccc(Cl)cc1C)c1nc2ccc(C(=O)c3ccccc3)cc2[nH]c1=O (centres undefined)	> 100	> 100	> 100	> 100	> 100	> 100	> 100	–	> 100	> 100	–	–	–	–	–	–	–	–	–	–
COC(=O)C(C(=O)C(=O)Nc1ccccc1C(C)=O)c1nc2ccc(Cl)cc2[nH]c1=O (centres undefined)	> 100	> 100	> 100	> 100	–	> 100	> 100	–	> 100	> 100	–	–	–	–	–	–	–	–	–	–
O=C(O)c1ccc(O)c(N=Nc2cc(S(=O)(=O)O)c3ccccc3c2O)c1	–	> 100	> 100	> 100	–	> 100	> 100	–	> 100	> 100	–	–	–	–	–	–	–	–	–	–
COC(=O)C(C(=O)C(=O)NC1=C(Cl)C(=O)c2ccccc2C1=O)c1csc(-n2nc(-c3ccccc3)cc2-c2ccccc2)n1 (centres undefined)	> 100	> 100	> 100	> 100	> 100	> 100	> 100	–	> 100	> 100	–	–	–	–	–	–	–	–	–	–
Cc1ccc([N+](=O)[O-])cc1NC(=O)C(=O)Cc1occc(=O)c1O	> 100	> 100	> 100	–	> 100	> 100	> 100	–	> 100	> 100	–	–	–	–	–	–	–	–	–	–
C[C@@H](CO)OCOCc1ccccc1	> 100	–	> 100	> 100	> 100	> 100	> 100	–	> 100	–	–	–	–	–	–	–	–	–	–	–
COC(=O)/C(C#N)=C1\CCC(O)N1C (centres undefined)	> 100	> 100	> 100	> 100	> 100	> 100	> 100	–	> 100	> 100	–	–	–	–	–	–	–	–	–	–
CC1(C)OC(C(N)=O)=C(C(N)=O)O1	> 100	> 100	> 100	> 100	> 100	> 100	> 100	–	> 100	> 100	–	–	–	–	–	–	–	–	–	–
Nc1ncnc(NC2C=C(CO)C(O)C2O)c1[N+](=O)[O-] (centres undefined)	> 100	> 100	> 100	–	–	> 100	59	–	> 100	> 100	–	–	–	–	–	–	–	–	–	–
COC(=O)C1=CN=C(C(=O)OC)NN1	> 100	–	> 100	> 100	> 100	> 100	> 100	–	–	> 100	–	–	–	–	–	–	–	–	–	–
Cc1c(C(=O)CC(=O)C(=O)Nc2ccc(Cl)c(Cl)c2)[n+](=O)c2ccccc2n1[O-]	43	36.9	57.2	36.5	37	55.4	71.8	–	53.2	> 100	–	–	–	–	–	–	–	–	–	–
COc1ccc(C(c2ccc(C(C)C)cc(=O)c2O)c2ccc3cccnc3c2O)cc1 (centres undefined)	> 100	7.86	> 100	17.5	10.9	9.48	24.4	–	> 100	–	–	–	–	–	–	–	–	–	–	–
CC(C)NCC(O)COC(=O)c1cccs1 (centres undefined)	> 100	> 100	> 100	> 100	> 100	> 100	> 100	–	> 100	> 100	–	–	–	–	–	–	–	–	–	–
Cc1ccccc1NC(=O)C(=O)C(c1cnc2ccc([N+](=O)[O-])cc2n1)[N+](=O)[O-] (centres undefined)	> 100	> 100	> 100	> 100	> 100	> 100	> 100	–	> 100	> 100	–	–	–	–	–	–	–	–	–	–
